Assay results as given in ChEMBL document CHEMBL3045058, “Comparative QSAR and pharmacophore modeling of substituted 2-[2-(dimethylamino) ethyl]-1, 2-dihydro-3H-dibenz[de,h]isoquinoline-1,3-diones derivatives as anti-tumor activity” (Med Chem Res, 2013).

Assays:
[1] = Cytotoxicity against human melanoma cells; type: functional, cell-based; settings: Melanoma cell
[2] = Cytotoxicity against human Ovarian cancer cells; type: functional, cell-based; settings: Cancer cell lines

| Compound | pIC50 [1] | pIC50 [2] |
| --- | --- | --- |
| CN(C)CCN1C(=O)c2cccc3cc4cc(O)ccc4c(c23)C1=O | 8.34 | 7.66 |
| CC(=O)Nc1ccc2c3c4c(cccc4cc2c1)C(=O)N(CCN(C)C)C3=O | 7.22 | 7.89 |
| CN(C)CCN1C(=O)c2c(N)ccc3cc4ccccc4c(c23)C1=O | 8.02 | 7.92 |
| CN(C)CCN1C(=O)c2c(Cl)ccc3cc4ccccc4c(c23)C1=O | 6.89 | 6.75 |
| CN(C)CCN1C(=O)c2cccc3cc4ccc(N)cc4c(c23)C1=O | 7.2 | 7.7 |
| CC(=O)Nc1ccc2cc3cccc4c3c(c2c1)C(=O)N(CCN(C)C)C4=O | 7.01 | 7.31 |
| CN(C)CCN1C(=O)c2cccc3cc4c(N)cccc4c(c23)C1=O | 4.69 | 5.02 |
| CN(C)CCN1C(=O)c2cccc3cc4ccc(O)cc4c(c23)C1=O | 5.92 | 5.72 |
| CN(C)CCN1C(=O)c2cccc3cc4c(O)cccc4c(c23)C1=O | 6.57 | 6.67 |
| CN(C)CCN1C(=O)c2cccc3cc4ccc(F)cc4c(c23)C1=O | 7.8 | 8.17 |
| CN(C)CCN1C(=O)c2cccc3cc4c(I)cccc4c(c23)C1=O | 6.08 | 5.68 |
| CN(C)CCN1C(=O)c2cccc3cc4ccc(C#N)cc4c(c23)C1=O | 7.96 | 7.92 |
| CN(C)CCN1C(=O)c2cccc3cc4ccc(-c5ccccc5)cc4c(c23)C1=O | 5.73 | 6.46 |
| CN(C)CCN1C(=O)c2c(NC(=O)C(C)(C)C)ccc3cc4ccccc4c(c23)C1=O | 5.06 | 6.18 |
| CCOc1ccc2cc3cccc4c3c(c2c1)C(=O)N(CCN(C)C)C4=O | 7.12 | 7.2 |
| CN(C)CCN1C(=O)c2cccc3cc4cc(N)ccc4c(c23)C1=O | 7.35 | 7.85 |
| CN(C)CCN1C(=O)c2cccc3cc4cccc(N)c4c(c23)C1=O | 6.02 | 5.76 |
| CN(C)CCN1C(=O)c2cccc3cc4c([N+](=O)[O-])cccc4c(c23)C1=O | 7.42 | 7.3 |
| CN(C)CCN1C(=O)c2cccc3cc4cccc(Cl)c4c(c23)C1=O | 5.69 | 5.05 |
| CN(C)CCN1C(=O)c2cccc3cc4cccc([N+](=O)[O-])c4c(c23)C1=O | 7.13 | 6.65 |

| Compound | pIC50 [1] | pIC50 [2] |
| --- | --- | --- |
| CN(C)CCN1C(=O)c2cccc3cc4ccc(Cl)cc4c(c23)C1=O | 7.19 | 7.11 |
| CN(C)CCN1C(=O)c2cccc3cc4cc(Cl)ccc4c(c23)C1=O | 7.05 | 6.64 |
| CN(C)CCN1C(=O)c2cccc3cc4ccc(I)cc4c(c23)C1=O | 6.2 | 6.75 |
| COc1cccc2c3c4c(cccc4cc12)C(=O)N(CCN(C)C)C3=O | 7.28 | 7.28 |
| CC(=O)Nc1cccc2c3c4c(cccc4cc12)C(=O)N(CCN(C)C)C3=O | 5.92 | 5.7 |
| CC(=O)Nc1ccc2cc3ccccc3c3c2c1C(=O)N(CCN(C)C)C3=O | 6.01 | 6.21 |
| CC(=O)Nc1cccc2cc3cccc4c3c(c12)C(=O)N(CCN(C)C)C4=O | 5.61 | 5.61 |
| CC(C)C(=O)Nc1ccc2cc3cccc4c3c(c2c1)C(=O)N(CCN(C)C)C4=O | 6.26 | 6.48 |
| CN(C)CCNc1ccc2cc3ccccc3c3c2c1C(=O)N(CCN(C)C)C3=O | 6.53 | 6.24 |
| CN(C)CCN1C(=O)c2cccc3cc4ccc([N+](=O)[O-])cc4c(c23)C1=O | 7.44 | 7.64 |
| CN(C)CCN1C(=O)c2cccc3cc4c(Cl)cccc4c(c23)C1=O | 7.11 | 7.41 |
| Cc1ccc2cc3ccccc3c3c2c1C(=O)N(CCN(C)C)C3=O | 6.75 | 6.91 |
| Cc1ccc2cc3cccc4c3c(c2c1)C(=O)N(CCN(C)C)C4=O | 7.09 | 7.17 |
| COc1ccc2cc3ccccc3c3c2c1C(=O)N(CCN(C)C)C3=O | 6.74 | 6.3 |
| COc1ccc2cc3cccc4c3c(c2c1)C(=O)N(CCN(C)C)C4=O | 7.28 | 7.11 |
| CN(C)CCN1C(=O)c2c(O)ccc3cc4ccccc4c(c23)C1=O | 5.12 | 4.83 |
| CN(C)CCN1C(=O)c2cccc3cc4cccc(O)c4c(c23)C1=O | 6.27 | 5.72 |
| COc1ccc2c3c4c(cccc4cc2c1)C(=O)N(CCN(C)C)C3=O | 6.79 | 6.27 |
| CN(C)CCN1C(=O)c2cccc3cc4ccccc4c(c23)C1=O [AZONAFIDE] | 7.15 | 7.24 |
